# Results from publication PMC3386930, “Altering APP Proteolysis: Increasing sAPPalpha Production by Targeting Dimerization of the APP Ectodomain” (PLoS ONE, 2012).
# “Also recorded” adds a separate entry of the source.
# Columns and labels:
# MBP-eAPP230–624 [1] = assay: Small-angle X-ray scattering (SAXS) of MBP-eAPP230–624 complexes; format: binding; settings: 50 µM compound, 1:12 molar ratio, PBS plus 2% DMSO
# Method: (§1) The excitation spectra of the intrinsic tryptophan fluorescence were recorded using either a Shimadzu RF-530PC (Shimadzu Scientific Instruments) or a Spectramax XPS spectrophotometer (Molecular Devices).
# The samples were incubated on ice for 20 minutes and then concentrated to 50 µl with 10-kDa cutoff concentrators (Millipore). […] Samples of the filtrates were used for buffer subtraction.
# The samples were then concentrated and purified with a Superdex S200 size-exclusion column with 20 mM Tris pH 7.4, 100 mM sodium chloride and 2 mM EDTA. Samples of the protein buffer from the size-exclusion columns were used for buffer subtraction.
# Data collection and processing
# Small-angle X-ray scattering data were collected using protein concentrations in the range of 0.5–3 mg/ml and an X-ray wavelength of 1.11 Å at beam line 12.3.1 (Advanced Light Source). Data were integrated with software customized for the beam line and processed with the program PRIMUS [30]. The program GNOM [31] was used to calculate the maximum dimension and the radius of gyration and to estimate the intensity of the scattering at zero angle for higher concentration samples.
# eAPP230–624 [2] = target: T1, eAPP230–624 (Homo sapiens, UniProt P05067); assay: Intrinsic tryptophan fluorescence of eAPP230–624; format: binding
# T1 construct: made in house
# T1 sequence (P05067 230-624 isoform P05067-4): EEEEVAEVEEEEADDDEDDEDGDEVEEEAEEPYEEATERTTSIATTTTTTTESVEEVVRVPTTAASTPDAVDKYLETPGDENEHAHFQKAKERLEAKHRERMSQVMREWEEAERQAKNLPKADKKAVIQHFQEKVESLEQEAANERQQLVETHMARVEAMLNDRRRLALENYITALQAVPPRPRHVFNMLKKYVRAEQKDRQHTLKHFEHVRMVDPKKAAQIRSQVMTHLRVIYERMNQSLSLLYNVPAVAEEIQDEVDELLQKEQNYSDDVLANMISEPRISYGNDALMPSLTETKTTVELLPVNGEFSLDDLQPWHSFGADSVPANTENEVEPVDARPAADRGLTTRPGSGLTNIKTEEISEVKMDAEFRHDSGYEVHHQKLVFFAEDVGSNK
# Method: as §1
# Full emission spectra were measured with the Shimadzu RF-530PC using a 3 ml quartz cuvette, a 5 nm slit width and protein concentrations between 0.2–0.6 µM. […] For these larger dilutions, control titrations with the protein alone were used to generate a scaling matrix where the scale factor was both a function of wavelength and dilution. […] A similar scaling matrix was used to correct for the effect of dilution with DMSO. […] All titrations were performed at 24°C. The oligomers were stored on ice during the experiment.
# These concentrations are analogous to concentrations used to create complexes for the small angle x-ray scattering analysis. The incubated material was diluted with PBS so that the final protein concentration was 0.5 µM. The spectra were recorded with the Shimadzu […].
# For experiments with the Spectromax XPS plate reader, an excitation wavelength of 295 nm was used. This excitation wavelength was chosen to minimize both the contribution of tyrosine in the protein and the background fluorescence of the 96-well plates (Costar #3915).
# For the quenching experiments, the data were analyzed by constructing Stern-Volmer plots, F0/F vs. Q, where Fo is the intensity of the fluorescence at zero concentration, F is the intensity of the fluorescence, and Q is the concentration of the quenching agent. When quenching is through either a static (binding) or dynamic (collisional) mechanism this plot is linear and follows the equation: [drawing 1] (1) where Ksv is the quenching constant. When both processes are present the Stern-Volmer plot is quadratic: [drawing 2] (2) where KD is the equilibrium constant associated with dynamic quenching and Ks is the equilibrium constant associated with static quenching. All parameters were determined using PRISM (GraphPad) and the appropriate non-linear curve fitting routine.
# The centroid wavelength (λc) was calculated as: [drawing 3] (3) where I(λi) is the intensity observed for the wavelength (λi). The range of wavelengths was 310–390 nm.
# eAPP230–624 [3] = target: T1, eAPP230–624; assay: Difference absorption spectra of eAPP230–624; format: binding; settings: 1:6 molar ratio, 8.3 µM eAPP230–624, 50 µM compound, PBS plus 2% DMSO
# 7W-CHO cells = assay: sAPPα and sAPPβ production in 7W-CHO cells (AlphaLISA); format: cell-based; settings: 1 µM compound, 24 hours, 50,000 cells per well, vs 0.01% DMSO
# Method: (§2) B103 rat neuroblastoma cells and 7W-CHO cells were seeded at 100,000 or 50,000 cells per well in a 96-well plate and allowed to grow for one day. The B103 rat neuroblastoma cells stably expressing human wild-type APP were a kind gift from Dr. Lennart Mucke (J. David Gladstone Institute of Neurological Disease and University of California, San Francisco). The 7W-CHO cells were a kind gift from Dr. Edward Koo (Department of Molecular Pathology, University of California, San Diego). The cell culture medium was then changed and the cells treated with 1 µM disulfiram, 1 µM sulfiram, or 0.01% DMSO (control). After 24 hours, the amount of sAPPα and sAPPβ produced in the medium was quantified using the AL231C and AL232C AlphaLISA kits from Perkin Elmer, respectively, modified using a custom biotinylated APP antibody.
# A) Effect of treatment with disulfiram and sulfiram on sAPPα and Aβ production in 7W-CHO cells. 7W-CHO cells were seeded at 50,000 cells per well in a 96-well plate and allowed to grow for one day. The cell culture medium was then changed and the cells treated with 1 µM disulfiram, 1 µM sulfiram, or 0.01% DMSO (control). After 24 hours, the amount of sAPPα and sAPPβ produced in the medium was quantified using the AL231C and AL232C AlphaLISA kit from Perkin Elmer, modified using a custom biotinylated human APP antibody. B) Effect on the ratio of α to β cleavage in 7W-CHO cells, as calculated by dividing the amount of sAPPα to sAPPβ produced by the 50,000 7W-CHO cells during one day under the effect of either disulfiram, sulfiram or a DMSO control. C) Effect on the ratio of α to β cleavage in B103 cells. B103 neuroblastoma cells were seeded at 100,000 cells per well in a 96-well plate and allowed to grow for one day. The cell culture medium was then changed and the cells treated with 1 µM disulfiram, 1 µM sulfiram, or 0.01% DMSO (Control). After 24 hours, the amount of sAPPα and sAPPβ produced in the medium was quantified using the same modified AL231C and AL232C AlphaLISA kit from Perkin Elmer. The ratio of α to β cleavage was calculated by dividing the amount of sAPPα to sAPPβ produced by the 100,000 B103 cells during one day under the effect of the disulfiram, sulfiram or DMSO control.
# [4] = test system: B103 rat neuroblastoma cells stably expressing human wild-type APP; assay: sAPPα and sAPPβ production in B103 cells (AlphaLISA); format: cell-based; settings: 1 µM compound, 24 hours, 100,000 cells per well, vs 0.01% DMSO
# Method: as §2
# A) Effect of treatment with disulfiram and sulfiram on sAPPα and Aβ production in 7W-CHO cells. […] After 24 hours, the amount of sAPPα and sAPPβ produced in the medium was quantified using the AL231C and AL232C AlphaLISA kit from Perkin Elmer, modified using a custom biotinylated human APP antibody. B) Effect on the ratio of α to β cleavage in 7W-CHO cells, as calculated by dividing the amount of sAPPα to sAPPβ produced by the 50,000 7W-CHO cells during one day under the effect of either disulfiram, sulfiram or a DMSO control. […]
# MBP-eAPP230–624 [5] = assay: ADAM10 cleavage of MBP-eAPP230–624 in vitro (sAPPα AlphaLISA); format: biochemical; settings: 1 uM disulfiram 15 minutes, then ADAM10 60 minutes
# Method: Then, ADAM10 was added for 60 minutes. Time points were taken every 20 minutes.
structure (smiles),measurement,setting,value
CCN(CC)C(=S)SSC(=S)N(CC)CC [Disulfiram],effect on monomer-dimer equilibrium / dimerization of MBP-eAPP230–624 (in words),MBP-eAPP230–624 [1],inhibits dimerization of MBP-eAPP230–624
same,effect on monomer-dimer equilibrium / dimerization of MBP-eAPP230–624 (in words),MBP-eAPP230–624 [1]; listed as disulfiram,significantly affected the monomer-dimer equilibrium of MBP-eAPP230–624 in favor of the monomer; also recorded: mixture of monomer and dimer
same,fluorescence peak wavelength (shifted from 344 nm),"eAPP230–624 [2]; 0.64 µM eAPP230–624, disulfiram 0–130 µM",357 nm
same,quenching of intrinsic fluorescence (in words),"eAPP230–624 [2]; 0.64 µM eAPP230–624, disulfiram 0–130 µM, sulfiram 0–320 µM, Shimadzu RF-530PC",significantly quenched the intrinsic fluorescence
same,Stern-Volmer slope relative to sulfiram,"eAPP230–624 [2]; 0.64 µM eAPP230–624, disulfiram vs sulfiram",1.6 times
same,relative binding affinity for eAPP230–624 (in words),"eAPP230–624 [2]; inferred from Stern-Volmer slopes, disulfiram vs sulfiram",higher binding affinity for eAPP230–624 than sulfiram
same,effect on dimerization of the ectodomain fragment (in words),"eAPP230–624 [2]; intrinsic fluorescence, confirmed with SAXS",inhibit dimerization of the ectodomain fragment
same,change in extinction coefficient,eAPP230–624 [3],significant drop in the extinction coefficient
same,sAPPα production / α-cleavage of APP (in words),7W-CHO cells,increase sAPPα production
same,sAPPα production / α-cleavage of APP (in words),7W-CHO cells; listed as disulfiram,significantly enhance the production of sAPPα; also recorded: enhance α-cleavage significantly
same,sAPPα production / α-cleavage of APP (in words),[4],significantly enhance the production of sAPPα; also recorded: enhance α-cleavage significantly
same,accessibility of the α-cleavage site to ADAM10 cleavage (in words),MBP-eAPP230–624 [5],increase the accessibility of the α-cleavage site near lysine 612 to ADAM10 cleavage
